Laboratory results reported in publication PMC11879040, “Advancing systemic toxicity risk assessment: Evaluation of a NAM-based toolbox approach” (Toxicological Sciences, 2024).
Like-named read-outs stand apart in the source and are kept apart here.

What was measured:
[1] = system: Gamma-aminobutyric acid receptor subunit alpha-1 BZD site, GABRA1A (r); assay type: binding, rat; settings: IPP screening at 10 uM; control diazepam
[2] = biological target: T1, Adenosine receptor A2a, ADORA2A (h) (Homo sapiens, UniProt P29274); experiment: IPP ADORA2A binding (agonist radioligand); settings: IPP screening at 10 uM; control NECA
T1 construct: purchased Eurofins Cerep (SafetyScreen44-based IPP panel)

[3] = biological target: T2, Estrogen receptor, ER1 (h) (Homo sapiens, UniProt P03372); experiment: IPP ER1 coactivator recruitment (agonist); assay type: biochemical; settings: 10 uM, estriol
T2 construct: purchased Eurofins Cerep (SafetyScreen44-based IPP panel)
T2 sequence (P03372 1-595): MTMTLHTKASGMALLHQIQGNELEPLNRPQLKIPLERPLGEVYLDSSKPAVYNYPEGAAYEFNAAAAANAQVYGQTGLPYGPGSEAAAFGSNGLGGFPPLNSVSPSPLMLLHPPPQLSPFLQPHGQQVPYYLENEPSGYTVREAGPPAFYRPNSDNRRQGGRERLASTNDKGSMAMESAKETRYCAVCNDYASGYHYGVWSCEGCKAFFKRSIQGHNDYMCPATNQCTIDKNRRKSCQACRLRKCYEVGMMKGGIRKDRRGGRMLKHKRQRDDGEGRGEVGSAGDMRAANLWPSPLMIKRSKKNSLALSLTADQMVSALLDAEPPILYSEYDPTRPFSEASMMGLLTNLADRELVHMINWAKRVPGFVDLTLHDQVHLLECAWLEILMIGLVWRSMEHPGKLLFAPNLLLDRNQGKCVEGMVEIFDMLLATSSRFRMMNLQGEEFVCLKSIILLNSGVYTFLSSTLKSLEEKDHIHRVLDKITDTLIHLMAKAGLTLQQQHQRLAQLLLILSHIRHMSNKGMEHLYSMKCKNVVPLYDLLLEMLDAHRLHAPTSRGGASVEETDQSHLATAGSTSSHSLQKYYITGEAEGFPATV

[4] = biological target: T2, Estrogen receptor, ER1 (h); experiment: IPP ER1 coactivator recruitment (antagonist); assay type: biochemical; settings: 10 uM, estriol
[5] = system: Thyroid hormone receptor alpha, THRA (h); experiment: IPP THRA coactivator recruitment (agonist); assay type: biochemical, human; settings: 10 uM; agonist; T3
[6] = system: Tubulin (r); experiment: IPP Tubulin binding; set-up: species or system rat; settings: 10 uM; ligand/control Colchicine
[7] = system: HepG2 cells; experiment: Cell stress panel (CSP), 24 h, 8 concentrations, BIFROST global PoD; assay type: cell-based; settings: HepG2; cell stress panel PoD
Experimental: Compounds were tested using the previously developed cell stress panel ([Hatherell et al. 2020]) and the expanded biomarker panel outlined in Middleton et al. HepG2 cells were treated with all compounds for 24 h across 8 concentrations prior to biomarker analysis. The same plate layout and number of replicates (3 biological and 2 technical) were used as previously for each assay within the panel.

[8] = system: HepG2 cells; experiment: High-throughput transcriptomics (HTTr, TempO-Seq), HepG2, 24 h; assay type: cell-based, human; settings: HepG2
Experimental: (§1) HepG2, HepaRG, and MCF7 cells were treated with each compound for 24 h across a dose range of 7 concentrations and lysed using TempO-Seq lysis buffer (BioSpyder Technologies, proprietary kit, see [Middleton et al. 2022] for method details). Sequencing was performed using TempO-Seq (BioClavis) version 2 of the human whole transcriptome panel and analyzed as described previously in Middleton et al.

[9] = system: HepaRG cells; experiment: High-throughput transcriptomics (HTTr, TempO-Seq), HepaRG, 24 h; assay type: cell-based, human; settings: HepaRG
Experimental: as §1

[10] = system: MCF7 cells; experiment: High-throughput transcriptomics (HTTr, TempO-Seq), MCF7, 24 h; assay type: cell-based, human; settings: MCF-7
Experimental: as §1

[11] = PBK model plasma Cmax estimate (Gastroplus 9.8; levels L1, L2, L3); set-up: species or system human; settings: therapeutic uses
[12] = system: 63 targets with known safety liabilities; experiment: In vitro pharmacological profiling (IPP) panel, screening at 10 or 100 µM and dose response, minimum IC50/AC50; assay type: biochemical; settings: lowest AC50 across IPP panel (systemic targets); cell_type -; read-out: ipp_lowest_ac50_systemic PoD
[13] = system: Glutamate receptor ionotropic NMDA 1 non-selective, GRIN1 (r); settings: IPP screening at 10 uM; control CGS 19755
[14] = biological target: T3, Pregnane X receptor PXR, NR1I2 (h) (Homo sapiens, UniProt O75469)
T3 sequence (O75469 1-434): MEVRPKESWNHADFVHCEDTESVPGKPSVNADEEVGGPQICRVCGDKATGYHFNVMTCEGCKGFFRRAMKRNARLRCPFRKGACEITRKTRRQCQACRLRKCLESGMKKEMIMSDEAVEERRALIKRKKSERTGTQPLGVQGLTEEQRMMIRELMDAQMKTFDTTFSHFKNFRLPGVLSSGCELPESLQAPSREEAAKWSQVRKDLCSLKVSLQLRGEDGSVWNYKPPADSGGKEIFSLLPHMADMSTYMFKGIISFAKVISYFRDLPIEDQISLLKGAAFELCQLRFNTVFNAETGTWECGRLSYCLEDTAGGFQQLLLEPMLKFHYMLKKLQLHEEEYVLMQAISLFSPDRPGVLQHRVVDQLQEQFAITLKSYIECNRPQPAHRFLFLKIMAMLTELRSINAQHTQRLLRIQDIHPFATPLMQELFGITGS

[15] = human
[16] = system: rat; settings: rat; 28 days; changes in thyroid hormone levels; ref ToxRefDB/Paul-Friedman et al. (2020)/regulatory opinions; cited from earlier work
[17] = cited from earlier work
[18] = at the given pH, single value or median, cited from earlier work
[19] = PBK level L2; taken or scaled from references (median where several); ref [6],[7],[10],[19]; cited from earlier work
[20] = hepatic intrinsic clearance (Clint); settings: PBK level L3; optimised against clinical data; per chemical [8],[9],[14],[16],[22],[24],[25],[29],[30],[32]
[21] = Assignment of risk classifications to benchmark chemical-exposure scenarios; settings: from table S1
[22] = Oral 200 mg solution, fasted, 23 healthy male, validation, ref Huang et al. 1986
[23] = Oral 200 mg suspension, fasted, 23 healthy male, validation, ref Huang et al. 1986
[24] = Oral 200 mg tablet, fasted, 23 healthy male, validation, ref Huang et al. 1986
[25] = Oral 200 mg tablet, fed, 6 healthy male, calibration, ref Daneshmend et al. 1981
[26] = Oral 200 mg tablet, fed, 8 healthy male, validation, ref Daneshmend et al. 1983

T1 sequence (P29274 whole entry): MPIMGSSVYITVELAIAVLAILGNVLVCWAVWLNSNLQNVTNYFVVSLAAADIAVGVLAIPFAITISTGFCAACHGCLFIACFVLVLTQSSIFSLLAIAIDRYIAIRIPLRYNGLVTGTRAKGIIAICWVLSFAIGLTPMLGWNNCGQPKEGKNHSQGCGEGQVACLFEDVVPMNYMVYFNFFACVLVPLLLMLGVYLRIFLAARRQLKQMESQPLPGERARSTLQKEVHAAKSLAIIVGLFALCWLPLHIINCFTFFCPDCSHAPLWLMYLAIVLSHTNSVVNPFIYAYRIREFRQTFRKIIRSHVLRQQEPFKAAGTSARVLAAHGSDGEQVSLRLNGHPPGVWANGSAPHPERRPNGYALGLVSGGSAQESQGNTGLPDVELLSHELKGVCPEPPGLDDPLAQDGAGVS

CC(=O)N1CCN(c2ccc(OC[C@H]3CO[C@](Cn4ccnc4)(c4ccc(Cl)cc4Cl)O3)cc2)CC1 [Ketoconazole, 1-{4-[4-({(2R,4S)-2-(2,4-Dichlorophenyl)-2-[(1H-imidazol-1-yl)methyl]-1,3-dioxolan-4-yl}methoxy)phenyl]piperazin-1-yl}ethan-1-one]
Specific binding [1]: 15.5% | Specific binding [2]: 2.1% | IPP screening %, Coactivator recruitment [3]: -1.0% | IPP screening %, Coactivator recruitment [4]: 24.0% | IPP screening %, Coactivator recruitment [5]: 1.0% | IPP screening %, Specific binding [6]: -15.0% | pod_cell_stress PoD [7]: 0.1454 µM | pod_httr_bifrost PoD ([8]; HTTr BIFROST PoD): 0.0007156 µM | podl_path_minbmd PoD ([8]; HTTr minimum pathway BMD(L)): 0.9153 µM | pod_httr_bifrost PoD ([9]; HTTr BIFROST PoD): 0.01699 µM | podl_path_minbmd PoD ([9]; HTTr minimum pathway BMD(L)): 0.1535 µM | pod_httr_bifrost PoD ([10]; HTTr BIFROST PoD): 0.1915 µM | podl_path_minbmd PoD ([10]; HTTr minimum pathway BMD(L)): 0.1648 µM | underprediction of the L3 result at L2 (Cmax) [11]: ≥ 5 fold | AC50 [12]: 0.38 µM | Specific binding [13]: 2.7% | IPP Dose Response PoD: PXR antagonist [14]: [7.8,21.8] | Fup [15]: 0.1% | PoD (NOEL) [16]: 6.25 mg/kg bw/day | Reported AUC0-t [17, 22]: 18.17 µg·h/mL | Reported cmax [17, 22]: 5.16 µg/mL | Reported tmax [17, 22]: 1 h | Reported AUC0-t [17, 23]: 15.73 µg·h/mL | Reported cmax [17, 23]: 4.66 µg/mL | Reported tmax [17, 23]: 1 h | Reported AUC0-t [17, 24]: 14.74 µg·h/mL | Reported cmax [17, 24]: 3.26 µg/mL | Reported tmax [17, 24]: 2 h | Reported AUC0-t [17, 25]: 16.94 µg·h/mL | Reported cmax [17, 25]: 3.573 µg/mL | Reported tmax [17, 25]: 2.475 h | Reported AUC0-t [17, 26]: 10.33 µg·h/mL | Reported cmax [17, 26]: 3.636 µg/mL | Reported tmax [17, 26]: 1.28 h | Aqueous Solubility ([18]; PBK level L2, ref [1],[4],[5],[10],[11],[17],[26]): 0.042 mg/mL | Aqueous Solubility ([18]; PBK level L3, ref [4],[5],[10],[11]): 0.042 mg/mL | Intrinsic Liver Clearance [19]: 1620.2 L/h | Intrinsic Liver Clearance [20]: 10077 L/h | risk ([21]; Dermal, Therapeutic, 2% daily, Shampoo, Exp2): 0 | risk ([21]; Dermal, Therapeutic, 2% twice weekly, Shampoo, Exp1): 0 | risk ([21]; Oral, 200 mg/day for fungal infection, Tablet, Exp4): 1 | risk ([21]; Oral, Therapeutic, 1200mg/day, Tablet, Exp3): 1
